Reference: EP0135657B1, “Antibacterial drugs and/or feed concentrates” (priority 1983, dated 1985)

Tests used:
[1] = test system: Bordatella bronchiseptica; settings: relatively high doses needed; J. Am. Vet. Med. Assoc., 6 [1979], 597-600; cited from earlier work
[2] = test system: Pasteurella multocida; assay: Minimum inhibitory concentration in vitro in broth containing phenol red and glucose (Difco); assay type: cell-based; settings: single substance; inhibits bacterial growth for 24 hours
Source text: (§1) Diese Feststellung wird durch die folgenden Versuchsergebnisse bestätigt. Die Mindesthemmkoncentrationen von Kombinationen von 2 bis 4 der obigen Verbindungen in erfindungsgemäßen Arzneimitteln beziehungsweise der einzelnen obigen Verbindungen als vergleichssubstanzen wurden in vitro gegen die Bakterienstämme Bordatella bronchiseptica und Pasteurella multocid in einer Phenolrot und Glucose enthaltenden Brühe [Hersteller: Firma Difco] bestimmt. In der folgenden Tabelle sind die Werte der Mindesthemmkonzentration [MIC-Werte] in mg/I, die den Bakterienzuwachs 24. Stunden lang hemmen, zusammengestellt.
(§2) Die Werte der Mindesthemmkonzentration [MIC-Werte] bei den Kombinationen bedeuten, daß die angegebenen Wirkstoffe gemeinsam in den angegebenen Konzentrationen das Wachstum der beiden verschiedenen Bakterienstämme bereits hemmen.

[3] = test system: Bordatella bronchiseptica; assay: as above; assay type: cell-based; settings: for Mindesthemmkonzentration durch Chlorchinaldol in Kombination verringert auf: fraction of the MIC of the substance alone, stated for the bacteria used, for Bordatella bronchiseptica as 1 order of magnitude; for Werte der Mindesthemmkonzentration [MIC-Werte] in mg/l in Bezug auf die Bakterienstämme Bordatella bronchiseptica: single substance, inhibits bacterial growth for 24 hours
Source text: as §1, §2

[4] = Blood plasma concentration reached in in vivo investigations; settings: Chlorchinaldol alone, very poorly absorbed, therapeutic effect said to need about 15 bis 20 p/ml, read-out: Konzentration im Blutplasma
Source text: (§3) Obwohl jeder der obigen Wirkstoffe eine antibakterielle Wirkung hat, sind verhältnismäßig hohe Dosen von 2-[Methoxycarbonylhydrazono)-methylen]-chinoxalin-1,4-dioxyd {Carbadox®} und 2,4-Diamino-5-[3',4',5'-tri-(methoxy)-benzyl] pyrimidin {Trimethoprim} bei alleiniger Verwendung derselben erforderlich. Was 2-(Methyl)-5,7-di-(chlor)-8-(hydroxy)-chinolin {Chlorchinaldol} betrifft, ist dieses eine bekannte Verbindung mit einer milden baktericiden und fungiciden Wirkung. Sie wird in erster Linie für dermatologische Zwecke, zur Behandlung von Hautinfektionen, verwendet. Obwohl bei 2-(Methyl)-5,7-di-(chlor)-8-(hydroxy)-chinolin (Chlorchinaldol) der in vitro bestimmte Wert der Mindesthemmkonzentration sehr niedrig ist, weshalb eine hohe Wirksamkeit zu erwarten wäre, ist es an sich zum Beispiel gegen Schnupfen unwirksam, wobei bei Untersuchungen in vivo die therapeutisch wirksame Dosis nicht erreicht wurde. 2-(Methyl)-5,7-di-(chlor)-8-(hydroxy)-chinolin (Chlorchinaldol) wird sehr schlecht absorbiert, weshalb im Blutplasma eine Konzentration von höchstens […] erreicht wird. Zur therapeutischen Wirkung wird jedoch eine wesentlich höhere Konzentration, nämlich etwa 15 bis […], gebraucht. Mit 2-(Methyl)-5,7-di-(chlor)-8-(hydroxy)-chinolin {Chlorchinaldol} allein wird also die zur Therapie erforderliche Konzentration im Plasma nicht erreicht. […]

[5] = test system: Schnupfen; assay: Efficacy against Schnupfen in in vivo investigations; settings: Chlorchinaldol alone; therapeutically effective dose not reached in vivo
Source text: as §3

Row | SMILES | Ergebnisse der Behandlung mit Bordatella bronchiseptica infizierter Tiere [1] | Werte der Mindesthemmkonzentration [MIC-Werte] in mg/l in Bezug auf die Bakterienstämme Pasteurella multocida [2] | Mindesthemmkonzentration durch Chlorchinaldol in Kombination verringert auf [3] | Werte der Mindesthemmkonzentration [MIC-Werte] in mg/l in Bezug auf die Bakterienstämme Bordatella bronchiseptica [3] | Cmax [4] [ng/mL] | Wirksamkeit gegen Schnupfen [5]
1 | COC(=O)NN=Cc1c[n+]([O-])c2ccccc2[n+]1[O-] [Carbadox®, 2-[(Methoxycarbonylhydrazono)-methylen]-chinoxalin-1,4-dioxyd] | verhältnismäßig günstige Ergebnisse | 10 mg/L | 1/10 | 50 mg/L | – | –
2 | CN(C)[C@@H]1C(O)=C(C(N)=O)C(=O)[C@@]2(O)C(O)=C3C(=O)c4c(O)cccc4[C@@](C)(O)[C@H]3[C@H](O)[C@@H]12 [Oxytetracyclin, 4-Dimethylamino-3,5,6,10,12,12a-hexahydroxy-6-methyl-1,11-dioxo-1,4,4a,5,5a,6,11,12a-octahydro-naphthacen-2-carbonsäureamid] | – | 5 mg/L | 1/10 | 5 mg/L | – | –
3 | COc1cc(Cc2cnc(N)nc2N)cc(OC)c1OC [Trimethoprim, 2,4-Diamino-5-[3',4',5'-tri-(me-thoxy)-benzyl]-pyrimidin] | – | 50 mg/L | 1/10 | 50 mg/L | – | –
4 | Cc1ccc2c(Cl)cc(Cl)c(O)c2n1 [Chlorchinaldol, 2-(Methyl)-5,7-di-(chlor)-8-(hydroxy)-chinolin] | – | 0,5 mg/l | – | 0,5 mg/l | ≤ 5000 | unwirksam
